EP0768085A1, “ANTIBACTERIAL AGENT” (DAIICHI PHARMACEUTICAL CO., LTD., priority 1994, dated 1996)
Values after ≈ are worked out from the molar mass of the structure shown. Blank lines part the entries; values can stand above or below the compound they belong to.

Tests used:
[1] = Absorption test, concentration of the compounds in serum by HPLC; type: in vivo; settings: mouse, mice, 100 mg/kg body weight, oral administration, serum at 1, 3, 5 and 24 hours, read-out: time at which concentration in serum reached a maximum
Experimental: An absorption test was performed using ketonitrile derivatives of the present invention (Compound Nos. […] and 155) on mice by dosing the derivatives in amounts of 100 mg/kg body weight. One, three, five, and 24 hours after administration of the compounds, blood was harvested and serum was separated therefrom. The concentration of the compounds in serum was determined by HPLC. As a result, Compound No. 155 and Compound No. 101 reached a maximum in concentration after 1 hour and 3 hours of administration, respectively.

in vivo = settings: mouse, oral administration, single dose, suspended in aqueous 0.5% CMC solution, male mice, observed for 14 days
Experimental: Acute toxicity (LD50) of a ketonitrile derivative of the present invention (Compound No. 4) was tested using male mice (Slc:ddY, 5 weeks old). To groups of each 5 mice, the compounds suspended in aqueous 0.5% CMC solution were forcibly dosed orally at a single time so that the final dosages of 707, 1,000, 1,414, and 2,000 mg/kg were attained. […] As a result, LD50 value under conditions of oral administration was estimated to be higher than 2,000 mg/kg. Thus, the compound was confirmed to be quite non-toxic.
To groups of each 5 mice, the compounds suspended in aqueous 0.5% CMC solution were forcibly dosed orally at a single time so that the final dosages of 500, 1,000, 1,500, and 2,000 mg/kg were attained. […] As a result, the LD50 value was estimated to be higher than 2,000 mg/kg. Thus, the compounds were confirmed to be quite non-toxic.

[2] = tested on: Staphylococcus aureus (209-P); assay: Antibacterial activity (IC), agar as in Example 8 (Example 15, Table 48); type: cell-based; settings: 18 h
Procedure, shortened: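 Agar dilution with Mueller-Hinton agar containing sample at final 100, 10 and 1 µg/ml, inoculated to 10^6 CFU/ml. Incubated at 37°C for 18 h, growth inhibition judged by medium turbidity. IC bands at successive 2-fold dilution: 100-10, 10-1, or ≤1 µg/ml.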

[3] = tested on: Streptococcus aureus (TI-1); assay: Antibacterial activity (IC), agar as in Example 8 (Example 16, Table 49); type: cell-based; settings: 18 h
Procedure, shortened: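 Broth-grown […] aureus (TI-1) inoculated onto Mueller-Hinton agar containing compound, per the MRSA method; DMSO/water dilutions at final 100, 10 and 1 µg/ml, 10^6 CFU/ml inoculum. After 18 h at 37°C, growth inhibition judged by turbidity; IC reported as bands (100-10, 10-1, ≤1 µg/ml).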

[4] = tested on: Pasteurella multocida (Kobe-6); assay: Antibacterial activity (IC), agar as in Example 8 (Example 17, Table 50); type: cell-based; settings: 18 h, origin pig
Procedure, shortened: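 Agar dilution on Mueller-Hinton agar with compound at 100, 10 and 1 µg/ml, inoculated at 10^6 CFU/ml with pig-origin strain Kobe-6. After 18 h at 37 °C, IC scored from turbidity and reported as a band (≤100, ≤10, ≤1 µg/ml).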

[5] = tested on: methicillin-resistant Staphylococcus aureus (MRSA) from humans; assay: Antibacterial activity (IC), agar as in Example 8 (Example 19, Table 52); type: cell-based; settings: 18 h
Procedure, shortened: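 MRSA human isolate at 10^6 CFU/ml on Mueller-Hinton agar containing compound at 100, 10 or 1 µg/ml, grown 18 h at 37 °C. IC is the lowest tested level that inhibited growth, binned as ≤100, ≤10 or ≤1 µg/ml.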

Enterococcus from fish = assay: Antibacterial activity (IC), agar as in Example 8, media with 1.5% NaCl, 25°C (Example 20, Tables 53-55); type: cell-based; settings: for MIC: Enterococcus Seriolicida SE94-002
Procedure, shortened: (§1)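 Growth inhibition was scored by turbidity after culture at 25°C, with IC bands set from 2-fold-dilution MIC-equivalents. Samples were tested at final 100, 10 and 1 µg/ml in Mueller-Hinton agar with 1.5% NaCl, seeded with 10^6 CFU/ml of the fish isolates.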

Pasteurella from fish = assay: as above; type: cell-based; settings: for MIC: Pasteurella piscicida KP94-02
Procedure, shortened: as §1

[6] = tested on: Bordetella bronchiseptica (S1); assay: Antibacterial activity (IC), agar as in Example 8 (Example 18, Table 51); type: cell-based; settings: 18 h
Experimental: (§2) The antibacterial action was evaluated by the inhibitory concentration (hereinafter abbreviated as IC) at which propagation of the bacteria cultured at 37°C for 18 hours was inhibited. Inhibition was determined by the turbidity of the medium. The expressions "IC≤100", "≤10", and "≤1" indicate that MIC-equivalent values obtained at the succesive […] dilution of the sample are 100-10 µg/ml, 10-1 µg/ml, and not more than 1 µg/ml, respectively. […] (In the subsequent Examples, the same rule applies correspondingly.) Table 39
(§3) A suitable amount of a sample was dissolved in dimethylsulfoxide (DMSO), after which the resulting solution was diluted with the same amount of sterilized distilled water to prepare a bulk sample of 1,000 µg/ml. Separately, a bacterial liquid for the test (methicillin-resistant Staphylococcus aureus (MRSA) isolated from humans) which had been cultured in Mueller-Hinton broth (product of DIFCO) was prepared and inoculated to a Mueller-Hinton agar (product of DIFCO) containing the sample so that the final inoculation amount of 10^6 CFU/ml was achieved. The final concentrations of the samples were 100, 10, and 1 µg/ml.
(§4) After culturing at 37°C for 18 hours, the antibacterial activity was evaluated in terms of IC in a manner similar to that described in Example 4.
(§5) In a manner similar to that described in Example 8, antibacterial activity of the invention compound was determined. The bacterium used for the test was Bordetella bronchiseptica (S1) and Bordetella bronchiseptica (SM2-4).

[7] = tested on: Bordetella bronchiseptica (SM2-4); assay: as above; type: cell-based; settings: 18 h
Experimental: as §2, §3, §4, §5

[8] = Enterococcus Seriolicida KG86050
[9] = Enterococcus Seriolicida MS89060
[10] = Enterococcus Seriolicida MS89064
[11] = Enterococcus Seriolicida MS89066
[12] = Enterococcus Seriolicida MS89068
[13] = Enterococcus Seriolicida SE94-001
[14] = Enterococcus Seriolicida SE94-003
[15] = Enterococcus Seriolicida SE94-004
[16] = Enterococcus Seriolicida SE94-005

- Tmax [1]: 3 h
SMILES: CC(Oc1cccc(Oc2ncc(C(F)(F)F)cc2Cl)c1)C(=O)C(C#N)c1ccc(Cl)c(Cl)c1 (stereo not drawn) [Compound No. 101, 4-[3-(3-chloro-5-trifluoromethyl-2-pyridyloxy)phenoxy]-2-(3,4-dichlorophenyl)-3-oxopentanonitrile]

SMILES: CC(Oc1cccc(Oc2ccc(C(F)(F)F)cc2Cl)c1)C(=O)C(C#N)c1ccc(Cl)c(Cl)c1 (stereo not drawn) [Compound No. 103, 4-[3-(2-chloro-4-trifluoromethylphenoxy)phenoxy]-2-(3,4-dichlorophenyl)-3-oxopentanonitrile]
- LD50 at 336 h (in vivo): > 2000 mg/kg
- MIC [2]: ≤ 1 µg/mL
- MIC [3]: ≤ 1 µg/mL
- MIC [4]: 1 to 10 µg/mL (≈ 1.89 to 18.9 µM)
- MIC ([5]; MRSA strain 891179): ≤ 1 µg/mL
- MIC ([5]; MRSA strain 891185): ≤ 1 µg/mL
- MIC ([5]; MRSA strain 891187): ≤ 1 µg/mL
- MIC ([5]; MRSA strain 891192): ≤ 1 µg/mL
- MIC ([5]; MRSA strain 900048): ≤ 1 µg/mL
- MIC ([5]; MRSA strain 900056): ≤ 1 µg/mL
- IC (Enterococcus from fish; Enterococcus Seriolicida HI): ≤ 1 µg/mL
- IC (Enterococcus from fish; [8]): ≤ 1 µg/mL
- IC (Enterococcus from fish; [9]): ≤ 1 µg/mL
- IC (Enterococcus from fish; [10]): ≤ 1 µg/mL
- IC (Enterococcus from fish; [11]): ≤ 1 µg/mL
- IC (Enterococcus from fish; [12]): ≤ 1 µg/mL
- IC (Enterococcus from fish; [13]): ≤ 1 µg/mL
- MIC (Enterococcus from fish): ≤ 1 µg/mL
- IC (Enterococcus from fish; [14]): ≤ 1 µg/mL
- IC (Enterococcus from fish; [15]): ≤ 1 µg/mL
- IC (Enterococcus from fish; [16]): ≤ 1 µg/mL
- MIC (Pasteurella from fish): 1 to 10 µg/mL (≈ 1.89 to 18.9 µM)
- IC (Pasteurella from fish; Pasteurella piscicida KP94-04): ≤10 (10-1 µg/ml)
- IC (Pasteurella from fish; Pasteurella piscicida KP94-05): ≤10 (10-1 µg/ml)
- IC (Pasteurella from fish; Pasteurella piscicida KP94-06): ≤10 (10-1 µg/ml)

SMILES: CC(Oc1cc(Oc2ccc(C(F)(F)F)cc2Cl)ccc1Cl)C(=O)C(C#N)c1cccc(Br)c1 (stereo not drawn) [Compound No. 155, 2-(3-bromophenyl)-4-[5-(2-chloro-4-trifluoromethylphenoxy)-2-chlorophenoxy]-3-oxopentanonitrile]
- LD50 at 336 h (in vivo): > 2000 mg/kg
- Tmax [1]: 1 h
- MIC [2]: ≤ 1 µg/mL
- MIC [3]: ≤ 1 µg/mL
- MIC [4]: 10 to 100 µg/mL (≈ 17.4 to 174 µM)
- MIC [6]: 10 to 100 µg/mL (≈ 17.4 to 174 µM)
- MIC [7]: 10 to 100 µg/mL (≈ 17.4 to 174 µM)
- MIC ([5]; MRSA strain 891179): ≤ 1 µg/mL
- MIC ([5]; MRSA strain 891185): ≤ 1 µg/mL
- MIC ([5]; MRSA strain 891187): ≤ 1 µg/mL
- MIC ([5]; MRSA strain 891192): ≤ 1 µg/mL
- MIC ([5]; MRSA strain 900048): ≤ 1 µg/mL
- MIC ([5]; MRSA strain 900056): ≤ 1 µg/mL
- IC (Enterococcus from fish; Enterococcus Seriolicida HI): ≤ 1 µg/mL
- IC (Enterococcus from fish; [8]): ≤ 1 µg/mL
- IC (Enterococcus from fish; [9]): ≤ 1 µg/mL
- IC (Enterococcus from fish; [10]): ≤ 1 µg/mL
- IC (Enterococcus from fish; [11]): ≤ 1 µg/mL
- IC (Enterococcus from fish; [12]): ≤ 1 µg/mL
- IC (Enterococcus from fish; [13]): ≤ 1 µg/mL
- MIC (Enterococcus from fish): ≤ 1 µg/mL
- IC (Enterococcus from fish; [14]): ≤ 1 µg/mL
- IC (Enterococcus from fish; [15]): ≤ 1 µg/mL
- IC (Enterococcus from fish; [16]): ≤ 1 µg/mL
- MIC (Pasteurella from fish): 10 to 100 µg/mL (≈ 17.4 to 174 µM)
- IC (Pasteurella from fish; Pasteurella piscicida KP94-04): ≤100 (MIC-equivalent values obtained at the succesive 2-fold dilution of the sample are 100-10 µg/ml)
- IC (Pasteurella from fish; Pasteurella piscicida KP94-05): ≤100 (MIC-equivalent values obtained at the succesive 2-fold dilution of the sample are 100-10 µg/ml)
- IC (Pasteurella from fish; Pasteurella piscicida KP94-06): ≤100 (MIC-equivalent values obtained at the succesive 2-fold dilution of the sample are 100-10 µg/ml)
